# Test results taken from patent US20170173052A1, “METHODS OF TREATING OVARIAN CANCER” (Cipla Limited, priority 2015, published 2017).
# Where two headings read alike, the source gives them in different places.
# Columns and labels:
# NCI/ADR-RES = test: In vitro cytotoxicity 2D assay (CellTiter-Blue cell viability); format: cell-based, human; conditions: 96 h treatment, read-out: absolute IC50
# Source text: (§1) In the present study the human ovarian cancer cell lines OVXF 899, OVXF 1023, A2780, SK-OV-3, OVCAR-3, IGR-OV1, OVCAR-5 and NCI/ADR-RES were used. OVXF 899 and OVXF 1023 were established at Oncotest, Germany from the corresponding human patient derived xenograft. A2780, IGR-OV1, NCl/ADR-RES, OVCAR-3 and OVCAR-5 were kindly provided by the NCI (National Cancer Institute, Bethesda, Md., USA). SK-OV-3 was purchased from ATCC (Rockville, Md., USA). Authenticity of cell lines was confirmed at the DSMZ by STR (short tandem repeat) analysis, a PCR based DNA-fingerprinting methodology. Cell lines were routinely passaged once or twice weekly and maintained in culture for up to 20 passages. All cells were grown at 37° C. in a humidified atmosphere with 5% CO2 in RPMI 1640 medium (25 mM HEPES, with L-glutamine, #FG1385, Biochrom, Berlin, Germany) supplemented with 10% (v/v) fetal calf serum (Sigma, Taufkirchen, Germany) and 0.1 mg/mL gentamicin (Life Technologies, Karlsruhe, Germany).
# (§2) The CellTiter-Blue® Cell Viability Assay (#G8081, Promega) was used according to manufacturer's instructions. Briefly, cells were harvested from exponential phase cultures, […] on the cell line's growth rate. After a 24 h recovery period to allow the cells to resume exponential growth, test compounds were added.
# (§3) Following an incubation period of up to four hours, fluorescence (FU) was measured by using the Enspire Multimode Plate Reader (excitation λ=531 nm, emission λ=615 nm). For calculations, the mean values of duplicate/six fold (untreated control) data were used. Sigmoidal concentration-response curves were fitted to the data points (T/C values) obtained for each cell line using 4 parameter non-linear curve fit (Oncotest Warehouse Software).
# (§4) The in vitro anti-tumor activity of methacycline in eight selected human ovarian cancer cell lines were evaluated. The test compounds was applied at 10 concentrations in half-log increments up to 300 μM. As a reference compound paclitaxel was tested in parallel. Cells were treated for 96 h with the test compounds. Anti-tumor activity was assessed by using the CellTiter-Blue® Cell Viability Assay. Potency is expressed as absolute IC50 and relative IC50 values, calculated by non-linear regression analysis. Results are depicted in FIGS. 1-4.
# OVCAR-5 [1] = test: as above; format: cell-based, human; conditions: 96 h treatment, read-out: absolute IC50
# Source text: as §1, §2, §3, §4
# SK-OV-3 [2] = test: as above; format: cell-based, human; conditions: 96 h treatment, read-out: absolute IC50
# Source text: as §1, §2, §3, §4
# OVCAR-3 = test: as above; format: cell-based, human; conditions: 96 h treatment, read-out: absolute IC50
# Source text: as §1, §2, §3, §4
# IGR-OV1 [3] = test: as above; format: cell-based, human; conditions: 96 h treatment, read-out: absolute IC50
# Source text: as §1, §2, §3, §4
# A2780 [4] = test: as above; format: cell-based, human; conditions: 96 h treatment, read-out: absolute IC50
# Source text: as §1, §2, §3, §4
# OVXF A2780 = test: In vitro combination study, 2D monolayer CellTiter-Blue, 5x5 matrix; format: cell-based, human; conditions: single agent, four days, read-out: IC50, tumor cell viability, single agent
# Method: (§5) The objective of this study was to assess anti-tumor efficacy of methacycline in combination with paclitaxel in a 5×5 matrix combination format against various ovarian cancer cell lines. The compounds were tested in ovarian cell lines, namely OVXF A2780 and OVXF SK-OV-3, obtained from National Cancer Institute (Bethesda, Md., USA). OVXF SKOV-3 cells were obtained from American Type Culture Collection (Rockville, Md., USA). Authenticity of cell lines was confirmed at the DSMZ by STR analysis. Cell lines were routinely passaged once or twice weekly and maintained in culture for up to 20 passages. Cells were grown at 37° C. in a humidified atmosphere with 5% CO2 in RPMI 1640 medium (25 mM HEPES, with L-glutamine, Biochrom) supplemented with 10% (v/v) fetal calf serum and 0.1 mg/mL gentamicin. The percentage of viable cells was determined in a Neubauer-hemocytometer using trypan blue exclusion.
# (§6) The CellTiter-Blue® Cell Viability Assay (#G8081, Promega) was used according to manufacturer's instructions. Briefly, cells were harvested from exponential phase cultures, counted and plated in 96-well flat-bottom microtiter plates at a cell density of 4,000-8,000 cells/well depending on the cell line's growth rate. After a 24 h recovery period to allow the cells to resume exponential growth, 10 μL of culture medium (twelve control wells/plate) or of culture medium with test compound were added, and treatment continued for four days. After four days treatment of cells, 20 μl/well CellTiter-Blue® reagent was added. Following an incubation period of up to four hours, fluorescence (FU) was measured by using the Enspire Multimode Plate Reader (excitation λ=531 nm, emission λ=615 nm). […]
# (§7) In the present study, methacycline was tested alone and in combination with paclitaxel in order to investigate the ability to inhibit tumor cell growth of ovarian cancer cell lines in a 5×5 matrix combination format. Efficacy of methacycline combined with paclitaxel was assessed by measuring tumor cell viability using a 2D monolayer assay in cell lines OVXF A2780, OVXF IGR-OV1, OVXF SK-OV-3.
# OVXF IGR-OV1 = test: as above; format: cell-based, human; conditions: single agent, four days, read-out: IC50, tumor cell viability, single agent
# Method: as §5, §6, §7
# [5] = tested on: ovarian cancer cell lines A2780, OVCAR3, OVCAR-5, and SK-OV-3; test: In vitro cytotoxicity 3D clonogenic assay, responding lines; format: cell-based, human; conditions: range over A2780, OVCAR3, OVCAR-5, SK-OV-3, read-out: IC50 values, inhibition of colony formation
# Method: (§8) In the present study methacycline and the reference compound paclitaxel were investigated for anticancer activity ex vivo in eight human tumor cell lines of ovarian cancer. Tests were carried out using a 3D clonogenic assay in 96-well format with image based read-out. The aim of the study was to investigate antitumor potency and tumor type selectivity of the compound. Cell lines were routinely passaged one or twice weekly. All cells were grown at 37° C. in a humidified atmosphere with 5% CO2 in RPMI 1640 medium (Biochrom) supplemented with 10% (v/v) fetal calf serum and 0.1 mg/mL gentamicin. The percentage of viable cells was determined in a Neubauer-hemocytometer using trypan blue exclusion.
# The clonogenic assay was carried out in a 96 well plate format using ultra low attachment plates. For each test, cells were prepared as described above and assay plates were prepared as follows: each test well contained a layer of semi-solid medium with tumor cells (50 μL), and a second layer of medium supernatant with or without test compound (100 μL). […] Cultures were incubated at 37° C. and 7.5% CO2 in a humidified atmosphere for 8 to 13 days and monitored closely for colony growth using an inverted microscope. […]
# [6] = tested on: eight selected human ovarian cancer cell lines; test: In vitro cytotoxicity 2D assay (CellTiter-Blue cell viability), panel mean; format: cell-based; conditions: for IC50: 96 h treatment, mean over eight ovarian cancer cell lines, read-out: geometric mean absolute IC50 value
# Source text: as §1, §2, §3
# The in vitro anti-tumor activity of methacycline in eight selected human ovarian cancer cell lines were evaluated. […] Anti-tumor activity was assessed by using the CellTiter-Blue® Cell Viability Assay. Potency is expressed as absolute IC50 and relative IC50 values, calculated by non-linear regression analysis. […]
# OVXF 899L = test: In vitro cytotoxicity 3D clonogenic assay; format: cell-based, human
# Method: as §8
# (§9) The clonogenic assay was carried out in a 96 well plate format using ultra low attachment plates. For each test, cells were prepared as described above and assay plates were prepared as follows: each test well contained a layer of semi-solid medium with tumor cells (50 μL), and a second layer of medium supernatant with or without test compound (100 μL). The cell layer consisted of 2·10^3 to 3·10^3 tumor cells per well, which were seeded in 50 μL/well cell culture medium (IMDM, supplemented with 20% (v/v) fetal calf serum, 0.01% (w/v) gentamicin, and 0.4% (w/v) agar. After 24 hours the test compounds were added after serial dilution in cell culture medium, and left on the cells for the duration of the experiment (continuous exposure, 100 μl drug overlay). Test concentrations ranged from 0.01 μM to 316.2 μM (methacycline), and 0.000095 μM to 3 (paclitaxel). Every plate included six untreated control wells and drug-treated groups in duplicate at 9 concentrations. Cultures were incubated at 37° C. and 7.5% CO2 in a humidified atmosphere for 8 to 13 days and monitored closely for colony growth using an inverted microscope. Within this period, ex vivo tumor growth led to the formation of colonies with a diameter of >50 μm. At the time of maximum colony formation, counts were performed with an automatic image analysis system (Bioreader 5000-Wa Biosys GmbH). 48 hours prior to evaluation, vital colonies were stained with a sterile aqueous solution of 2-(4-iodophenyl)-3-(4-nitrophenyl)-5-phenyltetrazolium chloride (1 mg/ml, 100 μl/well)
# NCI-ADR-RES = test: In vitro cytotoxicity 3D clonogenic assay; format: cell-based, human
# Method: as §8, §9
# OVCAR3 = test: In vitro cytotoxicity 3D clonogenic assay; format: cell-based, human; conditions: based on relative IC50 (individual IC50 <1/2 mean IC50)
# Method: as §8, §9
# SK-OV-3 [7] = test: In vitro cytotoxicity 3D clonogenic assay; format: cell-based, human; conditions: based on relative IC50 (individual IC50 <1/2 mean IC50)
# Method: as §8, §9
# IGR-OV1 [8] = test: In vitro cytotoxicity 3D clonogenic assay; format: cell-based, human; conditions: based on relative IC50
# Method: as §8, §9
# OVXF 1023L = test: In vitro cytotoxicity 3D clonogenic assay; format: cell-based, human
# Method: as §8, §9
# A2780 [9] = test: In vitro cytotoxicity 3D clonogenic assay; format: cell-based, human; conditions: based on relative IC50 (individual IC50 <1/2 mean IC50)
# Method: as §8, §9
# OVXF SK-OV-3 = test: In vitro combination study, 2D monolayer CellTiter-Blue, 5x5 matrix; format: cell-based; conditions: Homo sapiens, 96 h, single agent, four days, read-out: IC50, tumor cell viability, single agent
# Method: as §5
# The CellTiter-Blue® Cell Viability Assay (#G8081, Promega) was used according to manufacturer's instructions. Briefly, cells were harvested from exponential phase cultures, counted and plated in 96-well flat-bottom microtiter plates at a cell density of 4,000-8,000 cells/well depending on the cell line's growth rate. […] Following an incubation period of up to four hours, fluorescence (FU) was measured by using the Enspire Multimode Plate Reader (excitation λ=531 nm, emission λ=615 nm). […]
# [10] = tested on: eight human tumor cell lines of ovarian cancer; test: In vitro cytotoxicity 3D clonogenic assay, panel; format: cell-based; conditions: for IC50: Homo sapiens, continuous exposure 8 to 13 days
# Method: as §8
# as §9, with “48 hours prior to evaluation, vital colonies were stained with a sterile aqueous solution of 2-(4-iodophenyl)-3-(4-nitrophenyl)-5-phenyltetrazolium chloride (1 mg/ml, 100 μl/well)” left out
# OVCAR-5 [11] = test: In vitro cytotoxicity 3D clonogenic assay; format: cell-based, human; conditions: based on relative IC50
# Method: as §8, §9
compound,measurement,setting,value
methacycline,IC50,NCI/ADR-RES,104 µM
same,IC50,OVCAR-5 [1],14.5 µM
same,IC50,SK-OV-3 [2],18.6 µM
same,IC50,OVCAR-3,17.5 µM
same,IC50,IGR-OV1 [3],7.92 µM
same,IC50,A2780 [4],22.7 µM
same,IC50,OVXF A2780,34.6 µM
same,IC50,OVXF IGR-OV1,43.3 µM
same,IC50,[5],54.1 to 71.1 µM
same,IC50,[6],27.2 µM
same,difference between the most sensitive and most resistant cell line,[6]; IGR-OV1 vs NCI/ADR-RES IC50,13 fold
same,activity against colony formation,OVXF 899L,No activity
same,activity against colony formation,NCI-ADR-RES,No activity
same,activity against colony formation,OVCAR3,above average activity
same,activity against colony formation,SK-OV-3 [7],above average activity
same,activity against colony formation,IGR-OV1 [8],No activity
same,activity against colony formation,OVXF 1023L,No activity
same,activity against colony formation,A2780 [9],above average activity
CC(=O)O[C@H]1C(=O)[C@@]2(C)[C@H]([C@H](OC(=O)c3ccccc3)[C@]3(O)C[C@H](OC(=O)[C@H](O)[C@@H](NC(=O)c4ccccc4)c4ccccc4)C(C)=C1C3(C)C)[C@]1(OC(C)=O)CO[C@@H]1C[C@@H]2O [paclitaxel],IC50,"OVXF IGR-OV1; Homo sapiens, IGROV-1, 96 h",0.003 µM
same,IC50,OVXF SK-OV-3,0.009 µM
same,IC50,"[10]; read-out: mean absolute IC50 value, colony formation",0.077 µM
same,IC50,"[10]; read-out: mean relative IC50 value, colony formation",0.012 µM
same,bottom plateaus of the concentration-effect curves of responding tumor models,[10]; responding tumor models,0% to 60
same,IC50,[6]; Homo sapiens,0.045 µM
same,activity against colony formation,OVCAR-5 [11],above average activity
same,activity against colony formation,OVCAR3,above average activity
same,activity against colony formation,IGR-OV1 [8],above average activity
